Assays:
[1] = test system: tyrosinase activity in B16 melanoma cells; assay: Tyrosinase activity in wild type B16 melanoma cells (L-DOPA to DOPAchrome), proxy for ATP7A inhibition; format: cell-based; details: for IC50: Mus musculus, B16 cells
Source text: Tyrosinase is a cuproenzyme involved in melanogenesis that receives copper via ATP7A in the secretory pathway. […] Thus, reductions in tyrosinase activity in wild type B16 cells can be used as a proxy for inhibition of ATP7A. […]

ATP7A = target: T1, ATP7A (Homo sapiens, UniProt Q04656); assay: Microscale thermophoresis (MST) binding to GFP-ATP7A in HEK293 cell lysates; details: for Kd: MST analysis, read-out: ATP7A Binding Affinity KD
T1 construct: expressed in transfected cells; host or cells: HEK293 (detergent-free lysate)
T1 sequence (Q04656 1-1500): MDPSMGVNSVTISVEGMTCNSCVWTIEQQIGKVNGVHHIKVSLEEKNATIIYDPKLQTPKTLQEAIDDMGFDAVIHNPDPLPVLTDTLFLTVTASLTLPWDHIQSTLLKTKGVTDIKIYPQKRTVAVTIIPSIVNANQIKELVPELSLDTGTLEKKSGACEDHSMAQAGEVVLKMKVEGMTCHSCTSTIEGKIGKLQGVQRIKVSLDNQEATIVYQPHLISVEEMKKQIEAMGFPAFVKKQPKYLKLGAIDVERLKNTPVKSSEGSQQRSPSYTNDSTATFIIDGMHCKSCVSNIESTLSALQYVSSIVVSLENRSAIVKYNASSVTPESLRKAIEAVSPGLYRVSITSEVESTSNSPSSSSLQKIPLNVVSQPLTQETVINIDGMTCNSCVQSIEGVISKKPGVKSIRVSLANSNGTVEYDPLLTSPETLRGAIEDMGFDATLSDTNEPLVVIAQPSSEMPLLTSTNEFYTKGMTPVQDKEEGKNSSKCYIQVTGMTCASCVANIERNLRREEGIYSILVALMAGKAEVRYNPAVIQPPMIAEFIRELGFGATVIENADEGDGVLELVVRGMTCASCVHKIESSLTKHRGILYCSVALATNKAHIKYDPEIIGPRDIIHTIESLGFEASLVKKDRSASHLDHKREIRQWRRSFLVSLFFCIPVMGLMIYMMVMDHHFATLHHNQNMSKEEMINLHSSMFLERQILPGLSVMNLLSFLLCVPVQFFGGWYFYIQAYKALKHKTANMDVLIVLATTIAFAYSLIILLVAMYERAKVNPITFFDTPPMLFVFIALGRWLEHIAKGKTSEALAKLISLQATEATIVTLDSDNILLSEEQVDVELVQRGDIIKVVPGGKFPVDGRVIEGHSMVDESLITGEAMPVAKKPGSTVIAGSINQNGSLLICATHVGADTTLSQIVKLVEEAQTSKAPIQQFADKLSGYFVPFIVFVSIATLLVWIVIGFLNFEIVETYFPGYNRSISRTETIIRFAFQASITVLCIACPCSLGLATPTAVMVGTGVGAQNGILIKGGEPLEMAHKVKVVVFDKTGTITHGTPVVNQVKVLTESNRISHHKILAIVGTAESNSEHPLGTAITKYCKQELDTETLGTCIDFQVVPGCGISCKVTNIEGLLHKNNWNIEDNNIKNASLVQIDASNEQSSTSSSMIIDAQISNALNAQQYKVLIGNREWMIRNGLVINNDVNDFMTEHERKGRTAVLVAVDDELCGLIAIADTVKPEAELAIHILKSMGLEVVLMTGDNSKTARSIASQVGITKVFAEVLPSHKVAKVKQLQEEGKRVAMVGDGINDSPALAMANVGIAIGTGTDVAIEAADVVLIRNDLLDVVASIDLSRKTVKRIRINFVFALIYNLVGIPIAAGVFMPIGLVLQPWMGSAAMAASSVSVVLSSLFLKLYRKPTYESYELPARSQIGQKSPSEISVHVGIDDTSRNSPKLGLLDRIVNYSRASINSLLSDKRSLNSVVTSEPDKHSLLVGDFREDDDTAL

[2] = Cytotoxicity in B16 cells by MTT and crystal violet assays; format: cell-based; details: mouse, B16 melanoma cells; B16 cells, MTT and crystal violet assays; read-out: half-maximal cytotoxic concentration (CC50)
Source text: This is consistent with lower affinity of MKV1 for ATP7A (FIG. 6E).

ATP7B = target: T2, ATP7B (Homo sapiens, UniProt P35670); assay: Microscale thermophoresis (MST) binding to GFP-ATP7B in HEK293 cell lysates; details: MST
T2 construct: expressed in transfected cells; host or cells: HEK293 (detergent-free lysate)
T2 sequence (P35670 1-1465): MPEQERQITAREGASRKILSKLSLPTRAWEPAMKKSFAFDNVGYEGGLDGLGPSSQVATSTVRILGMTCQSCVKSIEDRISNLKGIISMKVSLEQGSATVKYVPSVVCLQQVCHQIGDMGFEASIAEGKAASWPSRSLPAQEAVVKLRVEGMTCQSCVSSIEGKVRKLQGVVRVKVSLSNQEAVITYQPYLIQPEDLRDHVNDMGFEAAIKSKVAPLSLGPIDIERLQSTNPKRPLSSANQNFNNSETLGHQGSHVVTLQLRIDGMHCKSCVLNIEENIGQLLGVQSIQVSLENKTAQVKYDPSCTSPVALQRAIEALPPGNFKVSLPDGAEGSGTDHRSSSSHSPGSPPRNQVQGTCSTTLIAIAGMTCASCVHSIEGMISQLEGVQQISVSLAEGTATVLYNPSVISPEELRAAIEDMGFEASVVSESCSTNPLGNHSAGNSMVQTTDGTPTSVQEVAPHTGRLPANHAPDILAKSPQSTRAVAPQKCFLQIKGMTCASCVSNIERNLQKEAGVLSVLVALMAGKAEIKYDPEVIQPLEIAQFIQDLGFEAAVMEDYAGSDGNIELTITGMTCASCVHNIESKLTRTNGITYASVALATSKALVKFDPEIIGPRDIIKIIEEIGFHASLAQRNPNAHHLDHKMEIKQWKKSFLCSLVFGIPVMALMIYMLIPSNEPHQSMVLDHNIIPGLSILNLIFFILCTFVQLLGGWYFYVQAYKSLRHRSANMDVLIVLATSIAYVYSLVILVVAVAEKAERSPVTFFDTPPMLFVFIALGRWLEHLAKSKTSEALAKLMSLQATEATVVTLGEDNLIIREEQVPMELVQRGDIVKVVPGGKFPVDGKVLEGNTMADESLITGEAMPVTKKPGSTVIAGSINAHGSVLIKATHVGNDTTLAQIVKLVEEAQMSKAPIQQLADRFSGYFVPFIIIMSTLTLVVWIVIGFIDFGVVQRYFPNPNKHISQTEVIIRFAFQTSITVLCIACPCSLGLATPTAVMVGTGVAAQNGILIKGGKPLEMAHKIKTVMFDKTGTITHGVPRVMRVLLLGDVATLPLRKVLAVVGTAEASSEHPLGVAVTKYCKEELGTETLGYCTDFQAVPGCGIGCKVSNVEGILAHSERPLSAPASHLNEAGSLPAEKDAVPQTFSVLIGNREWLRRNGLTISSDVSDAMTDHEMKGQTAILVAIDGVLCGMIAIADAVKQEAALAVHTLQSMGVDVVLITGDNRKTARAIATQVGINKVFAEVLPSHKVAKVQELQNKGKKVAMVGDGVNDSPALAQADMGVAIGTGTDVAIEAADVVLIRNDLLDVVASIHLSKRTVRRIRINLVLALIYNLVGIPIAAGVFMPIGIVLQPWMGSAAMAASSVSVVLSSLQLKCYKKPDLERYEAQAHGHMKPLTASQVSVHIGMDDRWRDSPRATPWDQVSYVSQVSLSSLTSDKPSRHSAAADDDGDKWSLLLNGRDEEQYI
Source text: (§1) Coordinating residues D935 and E798 are predicted to bind copper during transport.

LOX activity = LOX activity secreted into conditioned media of cancer cells; format: cell-based; details: 4T1 breast cancer cells, compared with MKV3
GFP alone = assay: Microscale thermophoresis (MST), GFP alone as negative control; format: binding
Source text: as §1

[3] = test system: ΔcopA/ΔcopB strain of S. aureus; assay: Growth of copper-sensitive ΔcopA/ΔcopB mutant strain of S. aureus; format: cell-based, Staphylococcus aureus; details: copper alone 50 μM
Protocol: Methicillin-resistant Staphylococcus aureus (MRSA) is a human pathogen that expresses two Cu-transporting P1B-type ATPases, CopA and CopB, which are known to enhance the virulence of this bacterium. 19A illustrates CopA and CopB copper exporters at the plasma membrane of S. aureus. […] The growth of the ΔcopA/ΔcopB strain was inhibited by approximately 50% when copper alone (50 μM) was added to the culture medium.
Wild type MRSA expresses two copper-exporting P1B-type ATPases, CopA and CopB that are required for copper tolerance (FIG. 19A). […] The same experiment was performed using MRSA in which both CopA and CopB genes were deleted (ΔcopA/ΔcopB). Consistent with the known role of CopA and CopB in copper tolerance, the growth of the ΔcopA/ΔcopB strain was inhibited by approximately 50% when copper alone (50 μM) was added to the culture medium (FIG. 19C).

For O=C(CC(=S)Nc1ccccc1Cl)Nc1ccccc1 [MKV1A], which IC50 [1] is on record?
Its IC50 is 21.559 ± 0.005 µM.

What about the Kd (ATP7A) of the same compound?
The Kd was 0.363 ± 0.024 µM.

For N#CC(C(=O)Nc1ccccc1)C(=S)Nc1ccccc1 (stereo not drawn) [MKV1B], which IC50 [1] is on record?
Its IC50 is 21.87 ± 0.129 µM.

And the Kd (ATP7A)?
Its Kd is 0.354 ± 0.021 µM.

With O=C(CC(=S)Nc1ccccc1)Nc1cccc(C(F)(F)F)c1 [MKV1C] as the compound, how does the IC50 [1] read?
The IC50 was 16.18 ± 0.023 µM.

And the Kd (ATP7A)?
The Kd was 0.43 ± 0.016 µM.

For O=C(CC(=S)Nc1ccccc1Cl)Nc1cccc(C(F)(F)F)c1 [MKV1D], which IC50 [1] is on record?
Its IC50 is 12.222 ± 0.005 µM.

What about the Kd (ATP7A) of the same compound?
The Kd was 0.708 ± 0.042 µM.

With N#CC(C(=O)Nc1ccccc1)C(=S)Nc1ccccc1Cl (stereo not drawn) [MKV1E] as the compound, how does the IC50 [1] read?
Its IC50 is 11.7 ± 0.001 µM.

And the Kd (ATP7A)?
The Kd was 1.06 ± 0.054 µM.

For N#CC(C(=O)Nc1cccc(C(F)(F)F)c1)C(=S)Nc1ccccc1 (stereo not drawn) [MKV1F], which IC50 [1] is on record?
Its IC50 is 8.719 ± 0.014 µM.

And the Kd (ATP7A)?
Its Kd is 1 ± 0.059 µM.

Which CC50 [2] does the source give for O=C(CC(=S)Nc1ccccc1)Nc1ccccc1 [MKV1] here?
Its CC50 is roughly 270 µM.

What about the “fold difference in affinity for ATP7B between MKV3 (higher) and MKV1 (lower)” value (ATP7B) of the same compound?
Its value is “approximately 10 fold”.

What about the “in situ tyrosinase activity” value ([1]; 50 μM, 24 h, wild type B16 melanoma cells) of the same compound?
The value was “loss of tyrosinase activity”.

What about the IC50 [1] of the same compound?
The IC50 was 29.98 ± 0.029 µM.

What about the LOX activity (LOX activity) of the same compound?
The LOX activity was “inhibited LOX activity but only at higher concentrations than for MKV3”.

What about the “binding to GFP alone” value (GFP alone) of the same compound?
Its value is “not to GFP alone”.

And the “fold difference in affinity for ATP7A between MKV3 (higher) and MKV1 (lower)” value (ATP7A; MST)?
Its value is “approximately 10 fold”.

And the Kd (ATP7A)?
The Kd was 1.83 ± 0.151 µM.

For copper, which “inhibition of growth of the ΔcopA/ΔcopB strain” value [3] is on record?
The value was “approximately 50%”.

Reference: US20250017889A1, “INHIBITORS OF P1B-TYPE ATPASES” (THE CURATORS OF THE UNIVERSITY OF MISSOURI, priority 2021, published 2025)
